Reference: US9248130B2, “Methods and compositions for treating thyroid-related medical conditions with reduced folates” (priority 2009, dated 2016)

Tests used:
Assay type in all cases: in vivo, human
[1] = Cerebrospinal folate levels in patient with cerebrospinal folate deficiency (case report); conditions: patient Example 2; folinic acid 5 mg twice per day; within approximately four months; rose from 32 L; preferred range 40-128
Protocol: Example 1 was tested for cerebrospinal folate deficiency approximately four months after Example 2's testing. […] Studies have shown that the earlier the anemias associated with cerebrospinal folate deficiency are addressed, the better the adversely impacted individual can overcome more long-term effects of the associated folate deficiency.
After Example 2's diagnosis, Example 2 was placed on 5-methyltetrahydrofolate in the form of folinic acid (5 mg twice per day).

[2] = Physical, behavioral and social skills of patient with cerebrospinal folate deficiency (case report); conditions: patient Example 2; after treatment
[3] = Hematological response (reticulocytes) in hypothyroid infant patient (case report); conditions: patient Example 1; additional nutritional supplement containing 2 mcg of vitamin B12
Description: Example 1 and Example 2 received different nutritional supplementation with respect to vitamin B12. Although Example 2 did receive the same infant milk formula that Example 1 received, which infant milk formula contained vitamin B12, Example 2 received less of the infant milk formula than Example 1, and Example 2 received in lieu of the infant milk formula more of the breast milk from the hypothyroid […]. Example 1 also received an additional multivitamin nutritional supplement that included 2 mcg of vitamin B12.

Compound | cerebrospinal folate levels [1] | physical, behavioral and social skills [2] | hematological response: reticulocytes [3]
Nc1nc2c(c(=O)[nH]1)N(C=O)C(CNc1ccc(C(=O)N[C@@H](CCC(=O)O)C(=O)O)cc1)CN2 (stereo partly drawn) [folinic acid, 6(R,S)-5-formyltetrahydrofolate] | approximately 88 | showed improvement | 
cobalamin [vitamin B12] |  |  | moving from below normal to normal
